Assay results taken from publication PMC9736157 (Molecules, 2022).
Where two headings read alike, the source gives them in different places.

Experiments:
B-RAF (V600E) = target: T1, B-RAF (V600E) (Homo sapiens, UniProt P15056, V600E); assay: BRAF^V600E inhibition assay (B-RAF (V600E) Kinase Assay Kit, Kinase-Glo MAX); format: biochemical; conditions: isolated BRAF^V600E, ATP 10 μM, 30 °C, 45 min; three experiments in duplicate; read-out: BRAF (V600E) Kinase Activity IC50 (nM ± SEM)
T1 construct: purchased BPS Bioscience
Protocol: In a 96-well plate, the different inhibitor solutions in DMSO were mixed with Buffer, ATP (10 μM) and Raf substrate. […] After a 15 min delay to equilibrate plate temperature, 50 μL of Kinase-Glo Max was added in each well, and the luminescence was measured according to supplier’s instruction. The results, reported as IC50 ± S.E.M., were calculated with GrapPad Prism 7 and derive from three different experiments run in duplicate.

A375 melanoma cell line = assay: Antiproliferative activity, CellTiter-Glo, A375; format: cell-based; conditions: Homo sapiens, A-375, A375, 72 h
Protocol: Based on the previous preliminary tests, we sought to investigate the ability of synthesized compounds 5–15 and reference 1 in inhibiting the proliferation of BRAF^V600E mutant cancer cells. A first screening was conducted in A375 melanoma cell lines (Table 1, Figure S2). Encorafenib was employed for comparison.
(§1) The ability of compounds 5, 10, 11, 15–selected based on their chemical diversity–to inhibit cell proliferation was then tested both in A375 and in Colo205 cancer cell lines. […] P5B was obtained by joining the BRAF inhibitor BI 882370 to pomalidomide through a five PEG unit spacer (Figure S3). In compound P5B, the linker length was of 17 atoms, the same length of the spacer used to generate our compound 10. A375 and Colo205 cells were treated for 72 h with compounds 5, 10, 11, 15, and P5B, and the antiproliferative activity was measured by a luminescent ATP-based assay, which determines the number of viable cells based on their metabolic activity. […] However, P5B was more efficient in inhibiting tumor cell viability in comparison with the other selected compounds.
(§2) Cell viability was evaluated by means of CellTiter-Glo Luminescent Assay (Promega), which allows users to measure the ATP in the cell supernatant. The assay was performed according to manufacturer’s instructions. In brief, 4.10^3 A375 or Colo205 were seeded into 96-well plates and allowed to adhere at the wall overnight. Cells were treated for 72 h with BRAF inhibitor compounds. Then, 90 µL of the cell culture medium was transferred in a white 96-well plate, to which 10 µL of CellTiter-Glo was added before measurement of luminescence. Luminescence was measured by the SPARK M10 (Tecan, Männedorf, Switzerland) plate reader.

Colo205 cell line = assay: Antiproliferative activity, CellTiter-Glo, Colo205; format: cell-based; conditions: Homo sapiens, COLO 205; Colo205, 72 h (Figure 6b); read-out: Antiproliferative activity IC50 (nM ± SEM)
Protocol: as §1, §2

[1] = first screening (Table 1), read-out: Antiproliferative Activity IC50 ± SEM
[2] = second set of experiments (Figure 6a), read-out: Antiproliferative activity IC50 (nM ± SEM)

T1 sequence (P15056 whole entry V600E): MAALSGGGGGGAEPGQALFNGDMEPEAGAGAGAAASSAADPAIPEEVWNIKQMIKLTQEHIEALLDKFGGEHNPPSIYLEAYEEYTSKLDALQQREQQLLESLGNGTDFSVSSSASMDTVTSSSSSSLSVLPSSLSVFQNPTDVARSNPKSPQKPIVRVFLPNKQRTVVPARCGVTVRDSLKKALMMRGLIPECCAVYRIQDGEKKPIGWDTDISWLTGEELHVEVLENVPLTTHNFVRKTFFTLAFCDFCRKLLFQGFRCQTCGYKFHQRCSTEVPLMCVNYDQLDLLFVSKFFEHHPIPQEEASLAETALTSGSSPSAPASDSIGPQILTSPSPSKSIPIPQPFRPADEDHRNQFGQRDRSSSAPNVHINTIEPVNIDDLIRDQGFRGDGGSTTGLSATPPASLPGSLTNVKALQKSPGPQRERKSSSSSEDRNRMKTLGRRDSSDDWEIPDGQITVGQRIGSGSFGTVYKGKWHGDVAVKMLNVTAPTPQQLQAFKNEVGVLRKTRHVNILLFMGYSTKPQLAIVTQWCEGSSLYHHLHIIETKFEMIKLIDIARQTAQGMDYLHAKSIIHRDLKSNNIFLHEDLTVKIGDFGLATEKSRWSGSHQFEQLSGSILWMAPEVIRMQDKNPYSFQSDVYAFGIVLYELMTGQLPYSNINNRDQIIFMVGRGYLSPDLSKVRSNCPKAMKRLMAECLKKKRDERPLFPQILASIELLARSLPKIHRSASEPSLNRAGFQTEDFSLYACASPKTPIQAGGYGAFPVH

Row | Structure (SMILES) | IC50 (B-RAF (V600E)) [nM] | IC50 (A375 melanoma cell line; [1]) [nM] | IC50 (Colo205 cell line) [nM] | IC50 (A375 melanoma cell line; [2]) [nM]
1 | CC(C)n1cc(-c2ccnc(NC[C@H](C)NC(=O)CCOCCOCCn3cc(COCCC(=O)Nc4cccc5c4C(=O)N(C4CCC(=O)NC4=O)C5=O)nn3)n2)c(-c2cc(Cl)cc(NS(C)(=O)=O)c2F)n1 (stereo partly drawn) [Compound 12, N-((S)-1-((4-(3-(5-chloro-2-fluoro-3-(methylsulfonamido)phenyl)-1-isopropyl-1H-pyrazol-4-yl)pyrimidin-2-yl)amino)propan-2-yl)-3-(2-(2-(4-((3-((2-(2,6-dioxopiperidin-3-yl)-1,3-dioxoisoindolin-4-yl)amino)-3-oxopropoxy)methyl)-1H-1,2,3-triazol-1-yl)ethoxy)ethoxy)propanamide] | 40 ± 4 | 732 ± 16 | – | –
2 | COCCOCCOCCOCCC(=O)N[C@@H](C)CNc1nccc(-c2cn(C(C)C)nc2-c2cc(Cl)cc(NS(C)(=O)=O)c2F)n1 [Compound 54, (S)-N-(1-((4-(3-(5-chloro-2-fluoro-3-(methylsulfonamido)phenyl)-1-isopropyl-1H-pyrazol-4-yl)pyrimidin-2-yl)amino)propan-2-yl)-2,5,8,11-tetraoxatetradecan-14-amide] | 80 ± 7 | – | – | –
3 | Cc1ncsc1-c1ccc(CNC(=O)[C@@H]2C[C@@H](O)CN2C(=O)[C@@H](NC(=O)COCCOCCOCCC(=O)N[C@@H](C)CNc2nccc(-c3cn(C(C)C)nc3-c3cc(Cl)cc(NS(C)(=O)=O)c3F)n2)C(C)(C)C)cc1 [Compound 15, (2S,4R)-1-((2S,17S)-2-(tert-butyl)-18-((4-(3-(5-chloro-2-fluoro-3-(methylsulfonamido)phenyl)-1-isopropyl-1H-pyrazol-4-yl)pyrimidin-2-yl)amino)-17-methyl-4,15-dioxo-6,9,12-trioxa-3,16-diazaoctadecanoyl)-4-hydroxy-N-(4-(4-methylthiazol-5-yl)benzyl)pyrrolidine-2-carboxamide] | 78 ± 9 | 3380 ± 172 | 1230 ± 543 | 3830 ± 784
4 | CC(C)n1cc(-c2ccnc(NC[C@H](C)NC(=O)CCOCCOCCOCCOCCNc3cccc4c3C(=O)N(C3CCC(=O)NC3=O)C4=O)n2)c(-c2cc(Cl)cc(NS(C)(=O)=O)c2F)n1 (stereo partly drawn) [Compound 9, N-((S)-1-((4-(3-(5-chloro-2-fluoro-3-(methylsulfonamido)phenyl)-1-isopropyl-1H-pyrazol-4-yl)pyrimidin-2-yl)amino)propan-2-yl)-1-((2-(2,6-dioxopiperidin-3-yl)-1,3-dioxoisoindolin-4-yl)amino)-3,6,9,12-tetraoxapentadecan-15-amide] | 67 ± 16 | 2000 ± 31.8 | – | –
5 | CC(C)n1cc(-c2ccnc(NC[C@H](C)NC(=O)CCOCCOCCOCC(=O)Nc3cccc4c3CN(C3CCC(=O)NC3=O)C4=O)n2)c(-c2cc(Cl)cc(NS(C)(=O)=O)c2F)n1 (stereo partly drawn) [Compound 14, N-((S)-1-((4-(3-(5-chloro-2-fluoro-3-(methylsulfonamido)phenyl)-1-isopropyl-1H-pyrazol-4-yl)pyrimidin-2-yl)amino)propan-2-yl)-3-(2-(2-(2-((2-(2,6-dioxopiperidin-3-yl)-1-oxoisoindolin-4-yl)amino)-2-oxoethoxy)ethoxy)ethoxy)propenamide] | 88 ± 17 | 1046 ± 0.75 | – | –
6 | COC(=O)N[C@@H](C)CNc1nccc(-c2cn(C(C)C)nc2-c2cc(Cl)cc(NS(C)(=O)=O)c2F)n1 [encorafenib (1), encorafenib, reference compound] | – | < 50 | – | –
7 | CC(C)n1cc(-c2ccnc(NC[C@H](C)NC(=O)CCOCCOCCn3cc(COCCOCCNc4cccc5c4C(=O)N(C4CCC(=O)NC4=O)C5=O)nn3)n2)c(-c2cc(Cl)cc(NS(C)(=O)=O)c2F)n1 (stereo partly shown) [Compound 13] | 58 ± 19 | 4100 ± 71.5 | – | –
8 | CC(C)n1cc(-c2ccnc(NC[C@H](C)NC(=O)CCOCCNc3cccc4c3C(=O)N(C3CCC(=O)NC3=O)C4=O)n2)c(-c2cc(Cl)cc(NS(C)(=O)=O)c2F)n1 (stereo partly drawn) [Compound 6, N-((S)-1-((4-(3-(5-chloro-2-fluoro-3-(methylsulfonamido)phenyl)-1-isopropyl-1H-pyrazol-4-yl)pyrimidin-2-yl)amino)propan-2-yl)-3-(2-((2-(2,6-dioxopiperidin-3-yl)-1,3-dioxoisoindolin-4-yl)amino)ethoxy)propanamide] | 52 ± 12 | 406.1 ± 2.4 | – | –
9 | CC(C)n1cc(-c2ccnc(NC[C@H](C)NC(=O)CCCNc3cccc4c3C(=O)N(C3CCC(=O)NC3=O)C4=O)n2)c(-c2cc(Cl)cc(NS(C)(=O)=O)c2F)n1 (stereo partly drawn) [Compound 5, N-((S)-1-((4-(3-(5-chloro-2-fluoro-3-(methylsulfonamido)phenyl)-1-isopropyl-1H-pyrazol-4-yl)pyrimidin-2-yl)amino)propan-2-yl)-4-((2-(2,6-dioxopiperidin-3-yl)-1,3-dioxoisoindolin-4-yl)amino)butanamide] | 61 ± 10 | 2740 ± 71 | 280 ± 24 | 1320 ± 304
10 | CC(C)n1cc(-c2ccnc(NC[C@H](C)NC(=O)CCOCCOCCNc3cccc4c3C(=O)N(C3CCC(=O)NC3=O)C4=O)n2)c(-c2cc(Cl)cc(NS(C)(=O)=O)c2F)n1 (stereo partly drawn) [Compound 7, N-((S)-1-((4-(3-(5-chloro-2-fluoro-3-(methylsulfonamido)phenyl)-1-isopropyl-1H-pyrazol-4-yl)pyrimidin-2-yl)amino)propan-2-yl)-3-(2-(2-((2-(2,6-dioxopiperidin-3-yl)-1,3-dioxoisoindolin-4-yl)amino)ethoxy)ethoxy)propanamide] | 66 ± 15 | 520 ± 80.5 | – | –
